# Measured values taken from patent US8389508B2 (Glaxo Group Limited, priority 2010, dated 2013).
# Structures can show the parent of a compound that is named as a salt.
# Legend:
# [1] = target: T1, human Endothelial Differentiation Gene 1 (EDG1), S1P1 receptor (Homo sapiens, UniProt P21453); experiment: S1P1 Assay (Tango EDG1-bla/U2OS beta-lactamase reporter, agonist dose response); type: cell-based; details: EDG1-bla/U2OS cells, blue/green emission ratio, 10 point dose response, free base or salt form; read-out: pEC50 (S1P1 assay) (converted)
# T1 construct: TEV protease site; Gal4-VP16 transcription factor; expressed in transfected cells; host or cells: EDG1-bla/U2OS (Tango GPCR-bla U2OS parental cell line)
# Outline: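 U2OS Tango cells with human EDG1 coupled to TEV site/Gal4-VP16 beta-lactamase reporter, serum-starved 24 h, then exposed overnight at 37 °C to 10-point compound dilutions. CCF4-AM FRET substrate 2 h RT; 460/530 nm ratio normalised to agonist and DMSO controls, sigmoidal fit; intrinsic activity relative to a reference compound set at 100%.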
# [2] = target: T2, human Endothelial Differentiation G-protein Coupled Receptor 3 (EDG3), S1P3 receptor (Homo sapiens, UniProt Q99500); experiment: S1P3 Assay (GeneBLAzer EDG3-Ga15-NFAT-bla HEK 293T beta-lactamase reporter, agonist dose response); type: cell-based; details: EDG3-Ga15-NFAT-bla HEK 293T cells, blue/green emission ratio, 10 point dose response, free base or salt form; read-out: pEC50 (S1P3 assay) (converted)
# T2 construct: expressed in transfected cells; host or cells: GeneBLAzer EDG3-Ga15-NFAT-bla HEK 293T
# Outline: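 HEK 293T cells stably expressing human EDG3 with Ga15 and NFAT-beta-lactamase reporter, ~10,000 cells/well, exposed overnight at 37 °C to 10-point compound doses in charcoal-stripped serum medium. CCF4-AM substrate loaded 2 h at room temperature; 460/530 nm ratio normalized to DMSO and agonist controls, sigmoidal fit; intrinsic activity relative to reference agonist maximum (100%).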
# [3] = clinical studies, Kappos et al 2006; cited from earlier work
# T1 sequence (P21453 whole entry, the tested form may be a part): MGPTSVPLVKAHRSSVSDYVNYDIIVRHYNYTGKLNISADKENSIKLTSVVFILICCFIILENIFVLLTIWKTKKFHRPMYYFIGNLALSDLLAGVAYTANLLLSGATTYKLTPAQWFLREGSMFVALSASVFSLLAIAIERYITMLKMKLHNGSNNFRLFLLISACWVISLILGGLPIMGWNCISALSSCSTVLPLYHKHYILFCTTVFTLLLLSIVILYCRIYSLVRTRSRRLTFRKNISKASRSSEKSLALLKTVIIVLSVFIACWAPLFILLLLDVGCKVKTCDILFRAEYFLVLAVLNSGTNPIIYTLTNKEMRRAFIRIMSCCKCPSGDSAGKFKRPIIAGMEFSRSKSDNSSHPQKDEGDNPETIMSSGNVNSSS
# T2 sequence (Q99500 whole entry): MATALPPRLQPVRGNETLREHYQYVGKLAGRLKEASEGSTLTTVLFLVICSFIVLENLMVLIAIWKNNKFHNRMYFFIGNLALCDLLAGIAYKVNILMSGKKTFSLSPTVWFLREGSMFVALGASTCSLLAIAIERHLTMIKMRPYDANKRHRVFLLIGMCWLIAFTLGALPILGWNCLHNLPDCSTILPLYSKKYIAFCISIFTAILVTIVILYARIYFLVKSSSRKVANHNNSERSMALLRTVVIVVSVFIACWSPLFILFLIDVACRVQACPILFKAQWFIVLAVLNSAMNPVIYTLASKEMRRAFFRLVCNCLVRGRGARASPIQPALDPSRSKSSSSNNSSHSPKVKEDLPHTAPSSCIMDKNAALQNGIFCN
SMILES,EC50 [1],EC50 [2],bradycardia on treatment [3]
"CCc1c(-c2nsc(-c3ccc(OC(C)C)c(Cl)c3)n2)cccc1C1CCN(CC(=O)O)CC1 [Example 99, {4-[3-(5-{3-chloro-4-[(1-methylethyl)oxy]phenyl}-1,2,4-thiadiazol-3-yl)-2-ethylphenyl]-1-piperidinyl}acetic acid trifluoroacetate]",≤ 10 nM,> 3160 nM,
"CCc1c(-c2nsc(-c3ccc(OC(C)C)c(Cl)c3)n2)cccc1C1CCN(CCC(=O)O)CC1 [Example 100, 3-{4-[3-(5-{3-chloro-4-[(1-methylethyl)oxy]phenyl}-1,2,4-thiadiazol-3-yl)-2-ethylphenyl]-1-piperidinyl}propanoic acid]",≤ 10 nM,> 10000 nM,
"CCc1c(-c2nsc(-c3ccc(OC(C)C)c(Cl)c3)n2)cccc1C1CCN(CCCC(=O)O)CC1 [Example 102, 4-{4-[3-(5-{3-chloro-4-[(1-methylethyl)oxy]phenyl}-1,2,4-thiadiazol-3-yl)-2-ethylphenyl]-1-piperidinyl}butanoic acid trifluoroacetate]",≤ 10 nM,> 10000 nM,
"CCc1c(-c2nsc(-c3ccc(CC(C)C)c(C#N)c3)n2)cccc1C1CN(CCCC(=O)O)C1 [Example 104, 4-[3-(3-{5-[3-cyano-4-(2-methylpropyl)phenyl]-1,2,4-thiadiazol-3-yl}-2-ethylphenyl)-1-azetidinyl]butanoic acid trifluoroacetate]",≤ 10 nM,> 10000 nM,
"CCc1c(CC2CCN(CC(=O)O)CC2)cccc1-c1nsc(-c2ccc(OC(C)C)c(Cl)c2)n1 [Example 105, (4-{[3-(5-{3-chloro-4-[(1-methylethyl)oxy]phenyl}-1,2,4-thiadiazol-3-yl)-2-ethylphenyl]methyl}-1-piperidinyl)acetic acid trifluoroacetate]",< 100 nM,> 10000 nM,
"CCc1c(CC2CCN(CCC(=O)O)CC2)cccc1-c1nsc(-c2ccc(OC(C)C)c(Cl)c2)n1 [Example 106, 3-(4-{[3-(5-{3-chloro-4-[(1-methylethyl)oxy]phenyl}-1,2,4-thiadiazol-3-yl)-2-ethylphenyl]methyl}-1-piperidinyl)propanoic acid trifluoroacetate]",< 100 nM,> 3160 nM,
CCCCCCCCc1ccc(CCC(N)(CO)CO)cc1 [FTY720],,,bradycardia in the first 24 hours of treatment
